Where a name gives a salt, the structure may show the parent alone.
Target: T1, human GIRK1/4 channels (Homo sapiens, UniProt P48544+P48549)
T1 construct: Full-length human GIRK1 cDNA was cloned from HuH cell- and HeLa cell-derived cDNA libraries; Full-length GIRK4 cDNA was amplified from a human heart cDNA library; expressed in transfected cells; host or cells: FLP-IN-CHO cells (Invitrogen)
T1 sequence (P48549 1-501): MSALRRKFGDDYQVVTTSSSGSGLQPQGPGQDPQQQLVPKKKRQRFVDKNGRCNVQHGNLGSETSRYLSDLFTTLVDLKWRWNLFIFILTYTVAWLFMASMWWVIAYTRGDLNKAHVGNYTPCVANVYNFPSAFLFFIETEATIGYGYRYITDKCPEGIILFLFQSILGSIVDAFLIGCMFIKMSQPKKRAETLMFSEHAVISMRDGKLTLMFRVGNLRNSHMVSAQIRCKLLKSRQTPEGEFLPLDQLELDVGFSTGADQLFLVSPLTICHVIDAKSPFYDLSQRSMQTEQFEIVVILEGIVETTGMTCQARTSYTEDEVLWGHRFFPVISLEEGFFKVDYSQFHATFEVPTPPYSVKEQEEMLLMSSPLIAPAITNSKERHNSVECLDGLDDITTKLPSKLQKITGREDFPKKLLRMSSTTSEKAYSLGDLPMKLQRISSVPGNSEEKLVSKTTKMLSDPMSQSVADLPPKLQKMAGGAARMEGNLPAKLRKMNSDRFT
T1 sequence (P48544 1-419): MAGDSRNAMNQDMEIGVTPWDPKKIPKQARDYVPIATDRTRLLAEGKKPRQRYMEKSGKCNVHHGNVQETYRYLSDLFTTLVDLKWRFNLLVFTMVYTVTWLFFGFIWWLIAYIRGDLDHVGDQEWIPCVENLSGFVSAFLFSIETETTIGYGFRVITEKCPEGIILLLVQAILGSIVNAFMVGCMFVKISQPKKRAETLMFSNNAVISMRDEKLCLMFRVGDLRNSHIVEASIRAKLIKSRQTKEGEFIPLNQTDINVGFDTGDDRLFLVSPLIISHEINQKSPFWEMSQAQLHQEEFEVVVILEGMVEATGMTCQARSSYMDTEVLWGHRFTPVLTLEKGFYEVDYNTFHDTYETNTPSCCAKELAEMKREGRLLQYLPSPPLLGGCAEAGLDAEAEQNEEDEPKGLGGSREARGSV
Assay: Measurement of human GIRK1/4 channel current by whole-cell patch clamp method (human GIRK1/4-expressing CHO cell line)
Format: cell-based
Conditions: whole-cell patch clamp, human GIRK1/4-expressing CHO cells; step end current at −120 mV; test compound 0.1, 1, 10 μM; read-out: GIRK¼ IC50
Method: (2) Production of CHO Cell Line Expressing Human GIRK1/4
CHO cell lines stably expressing human GIRK1/4 channels were prepared in the following manner.
Full-length human GIRK1 cDNA was cloned from HuH cell- and HeLa cell-derived cDNA libraries. Full-length GIRK4 cDNA was amplified from a human heart cDNA library (produced by Clontech Laboratories, Inc.) by PCR using synthetic primers shown in Table 1, and cloned into the Eco-RI restriction enzyme site of pCR-Blunt (produced by Invitrogen Corporation) or into the HincII site of pUC118 (produced by Takara Bio, Inc.).
The obtained human GIRK1 and GIRK4 cDNA sequences correspond to known sequences (NCBI database: GIRK1 (NM_002239) and GIRK4 (NM_000890) respectively). The obtained GIRK1 and GIRK4 cDNA sequences were cloned into the Eco-RI restriction enzyme site of pCR-Blunt (available from Invitrogen Corporation) or into the HincII site of pUC118 (available from Takara Bio, Inc.). A GIRK4 expression vector was constructed by insertion into the BamHI-XhoI site of pcDNA5/FRT. A GIRK1 expression vector was constructed by insertion into the KpnI-XhoI site of pcDNA3.1(+) or pCAG_neo. FLP-IN-CHO cells (produced by Invitrogen Corporation) were transfected with human GIRK1 and GIRK4 expression vectors by using Lipofectamine 2000 (produced by Invitrogen Corporation) according to the protocol enclosed with the reagent or using an electronic induction method (“Nucleofector Kit-T”, produced by Amaxa). First, the cells transfected with the GIRK4 expression vector were cultured in a 10% serum-containing F12 medium (produced by Sigma) supplemented with 600 μg/ml of hygromycin in an incubator with 5% carbon dioxide at 37° C. Then the cells expressing GIRK4 were transfected with the GIRK1 expression vector and were cultured in 10% serum-containing F12 medium supplemented with 350 μg/ml of G418 and 600 μg/ml of hygromycin in an incubator with 5% carbon dioxide at 37° C. to select GIRK1/4 expressing cell lines. Cell populations whose growth was observed after about 2 weeks were isolated using cloning rings, and the obtained single colonies were proliferated. RNA was extracted from single colonies, and single-stranded cDNA was synthesized by a cDNA synthesis kit (produced by Invitrogen Corporation), and the amount of expression was quantified at the mRNA level by real-time PCR (Applied Biosystems, Ltd.). Finally, the expressed current was analyzed by patch clamp method described below. The cell lines expressing a current of 500 pA or more per cell were selected as channel-expressing cell lines for activity measurement by patch clamping method.
(4) Measurement of Ion Channel Current by Patch Clamp Method (Human GIRK1/4-Expressing CHO-K1 Cell Line)
An experiment was carried out using a patch clamp setup at room temperature (20 to 26° C.). A perfusion chamber having a diameter of 20 mm (flow rate: about 5 ml/min) was mounted on the stage of a phase-contrast inverted microscope (produced by Nikon Corporation) placed on a vibration isolation table. A poly-L-lysine (produced by Sigma)-coated coverslip (diameter: 15 mm, produced by Matsunami Glass Ind., Ltd.) on which human GIRK1/4-expressing cells were cultured was placed in the perfusion chamber.
Hyperpolarizing stimulation pulses were applied and ionic current was recorded using a patch clamp amplifier (EPC-7 or EPC-7 PLUS, manufactured by HEKA) and a personal computer (manufactured by IBM Corp.) in which software for data acquisition and analysis of ion channel current (PULSE 8.77, manufactured by HEKA) was installed. The current was measured in the whole-cell configuration of the patch-clamp technique. The tip (resistance: 2 to 4 MΩ) of a borosilicate glass pipette (produced by Sutter Instrument Co.) was gently placed on the cell membrane by using a three-dimensional mechanical micromanipulator (produced by Shoshin EM Corporation). […] Subsequently, stronger suction was applied to break the cell membrane. […]

| Compound | IC50 [nM] |
| --- | --- |
| CCN1C(=O)C(C)(C)C(=O)N(C)c2cc(OCCCN(CCn3ccc4ccoc4c3=O)Cc3cccs3)ccc21 [Example 417] | 980 |
| CCN1C(=O)C(C)(C)C(=O)N(CC)c2cc(OCCCN(CCc3cccnc3)Cc3ccncc3)ccc21 [Example 14, 1,5-diethyl-3,3-dimethyl-7-{3-[(2-pyridin-3-ylethyl)pyridin-4-ylmethylamino]propoxy}-1,5-dihydrobenzo[b][1,4]diazepine-2,4-dione trihydrochloride] | 720 |

Other lines, results leading:

| IC50 [nM] | Compound |
| --- | --- |
| 2500 | CCN1C(=O)C(C)(C)C(=O)N(C)c2cc(OCCCN(CCc3cccnc3)S(=O)(=O)c3ccccc3)ccc21 [Example 628, N-[3-(1-ethyl-3,3,5-trimethyl-2,4-dioxo-2,3,4,5-tetrahydro-1H-benzo[b][1,4]diazepin-7-yloxy)propyl]-N-(2-pyridin-3-ylethyl)benzenesulfonamide hydrochloride] |
| 330 | CCN1C(=O)C(C)(C)C(=O)N(C)c2cc(OCCCN(CCn3ccc4ccoc4c3=O)Cc3ccc(C(F)(F)F)cc3)ccc21 [Example 395] |
| 490 | CCN1C(=O)C(C)(C)C(=O)N(C)c2cc(OCCCN(CCn3ccc4ccoc4c3=O)Cc3ccc(C#N)cc3)ccc21 [Example 380] |
